{cycp1} = methylcyclopropene carbamate coupled through the 3' amine; {3AmMO} = amino modifier (IDT nomenclature)
What was measured:
[1] = Fluorescence turn-on spectroscopy of tetrazine-Alexa Fluor 488 with Ac4ManNCyc; assay type: physicochemical
Procedure: Mannosamine-cyclopropene (Ac4ManNCyc) and tetrazine-Alexa-Fluor 488 stocks were prepared at 1 and 0.1 mM, respectively, in phosphate-buffered saline (PBS) pH 7.4. Fluorescence turn-on was measured using a Perkin Elmer LD-45 spectrometer, with the excitation wavelength set to 480/5 nm, and emission scanned over 490-620 nm (5-nm slit width) at a rate of 50 nm/min. Reaction conditions were 50 μM tetrazine-Alexa-Fluor 488 and 100 μM Ac4ManNCyc in PBS pH 7.4 buffer at room temperature.

[2] = system: SKBR3 cells; experiment: Analysis of cell surface cyclopropenes by flow cytometry; assay type: cell-based, human; details: followed by tetrazine imaging probe
Procedure: After the incubating the adherent SKBR3 cells in 100 μM of Ac4ManNCyc (1.2 μM tunicamycin and/or 1 mM aBnGalNAc was used in experiments requiring glycosylation inhibitors) they were washed twice in PBS and then incubated in 10 μM of tetrazine-Alexa flour 488 for 1 hour at 37° C. Control cells were not exposed to Ac4ManNCyc and incubated in 10 μM of tetrazine-Alexa flour 488 for 1 hour at 37° C. Cells were then resuspended in 1-2 ml of cDMEM (5.0×10^5 to 1.0×10^6 per ml) using a rubber policeman. The cells were passed through a 25 gauge syringe to ameliorate excessive clumping, and subjected to analysis by flow cytometry using a 200 mW 488 nm blue solid state laser on the Partec Space Flow Cytometer (Partec).

[3] = system: SKBR3 cells; experiment: Live-cell microscopy of metabolically incorporated cyclopropene sugar; assay type: cell-based, human; details: SKBR3; 100 μM for 48 hours, then 10 μM tetrazine-Alexa Fluor 488 for 1 hour
Procedure: (§1) SKBR3 and LS 174T cells were grown in cDMEM media supplemented with 10% fetal bovine serum, 1% L-glutamine, 1% penicillin/streptomycin. Cells were incubated in 5.0% carbon dioxide, 95% humidity at 37° C. Generally, cells were grown in T-75 tissue culture flasks, seeded at densities between 500,000 and 750,000 cells per flask (cells were quantified with the Life Technologies Countess automated cell counter). The cells were trypsinized with TrypLE Express and resuspended in cDMEM. Cells were allowed to incubate for two days before supplementing with Ac4ManNCyc (N-cyclopropeneacetylmannosamine) or Ac4GlcNAz (N-azidoacetylglucosamine). The cells were then analyzed via confocal microscopy and flow cytometry as described below.
(§2) The SKBR3 and LS174T cells were incubated for two days in the presence of 100 μM of Ac4ManNCyc and/or 50 μM Ac4GlcNAz on a Lab-Tek chamber slide maintained in cDMEM medium. Treatment of cells with tunicamycin was done by preparing a 0.2 mg/mL stock in DMSO, which was diluted to a final working concentration of 1.2 μM tunicamycin in cDMEM (0.5% DMSO). Cells were washed 3× with phosphate-buffered saline (PBS) and incubated for 1 hour at 37° C. in 10 μM tetrazine-BODIPY TMR-X, 10 μM tetrazine-Alexa flour 488 and/or 15 μM dibenzocyclooctyne (DIBO)-Alexa Fluor 647 in cDMEM. The media was aspirated, and cells were washed twice with PBS before imaging. All photos were collected with an Olympus FV1000 confocal microscope using ImageJ 1.45j software package.
(§3) In order to determine if Ac4ManNCyc was incorporated effectively by cells, we incubated adherent human breast cancer (SKBR3) and colon cancer (LS174T) cell lines with 100 μM Ac4ManNCyc for 48 hours in cell media and serum. After incubation, cells were thoroughly washed and then reacted for 1 hour with 10 μM of fluorogenic Alexa Fluor 488 tetrazine. After a second wash, cells were imaged by confocal microscopy (Olympus FV1000). […] In order to ensure that the staining was due to glycan uptake of the probe, we also performed controls by exposing cells to 100 μM Ac4ManNCyc and inhibiting uptake by using glycosylation inhibitors (ie. tunicamycin and αBnGalNAc) or 20 mM of ManNAc as a competitive substrate.^[14] […] These experiments provide evidence that the staining patterns are reporting on glycosylation and uptake of the unnatural cyclopropene mannosamine. We also performed additional studies using flow cytometry to quantitate the relative uptake of sugars that corroborated the imaging data.

[4] = system: LS174T cells; experiment: as above; assay type: cell-based, human; details: 100 μM for 48 hours, then 10 μM tetrazine-Alexa Fluor 488 for 1 hour
Procedure: as §1, §2, §3

[5] = system: LS174T human colon cancer cells; experiment: Simultaneous imaging of two metabolically incorporated unnatural sugars and cross reactivity; assay type: cell-based
Procedure: as §2
Finally, we tested whether or not we could simultaneously image two different metabolically incorporated unnatural sugar derivatives, Ac4ManNCyc and tetraacetylated N-azidoacetylgalactosamine (Ac4GalNAz). […] Recent experimental work has shown that alkenes and azides can be mutually orthogonal to each other, even when using highly strained trans-cyclooctenes. Additionally, the Houk group has calculated that methyl-cyclopropene handles, such as those we have previously developed, should be mutually orthogonal to azide cyclooctyne reactions. We incubated LS174T human colon cancer cells with 100 μM Ac4ManNCyc and Ac4GalNAz for 2 days. After incubation, we sequentially stained the cells with 10 μM tetrazine-Alexa Fluor 488 and 15 μM dibenzocyclooctyne (DIBO) 647. […] Similar results were obtained with the SKBR3 cell line. […] The ability to simultaneously label two different metabolically incorporated molecules using live-cell compatible inverse-Diels-Alder and Huisgen reactions expands the capabilities of bioorthogonal metabolic imaging.

[6] = Storage stability of cyclopropene derivatives; assay type: physicochemical; details: stored at −20° C.
[7] = Stability of cyclopropene 5 by 1H NMR; assay type: physicochemical; details: 37° C., over 24 hours
Procedure: Cyclopropene 5 was kept at 37° C. in D2O: DMSO-d6=10:1 and 1H NMR was taken over a period of 24 h at the following time points: 0.0, 0.5, 1.0, 1.5, 3.0, 6.0 and 24.0 h. By comparing the peak abundance of the cyclopropene alkene proton (6.21 ppm) at different time points, we determined the stability of cyclopropene 5 (Figure S2).

[8] = Reaction rate determination of cyclopropenes with tetrazine 3; assay type: physicochemical
Procedure: A tetrazine 3 stock solution was prepared in DMSO and used to prepare tetrazine solutions at 0.6 mM final concentration in 12% v/v DMSO in ddH2O. Reactions were initiated with excess cyclopropene at final concentrations of 6.0, 8.0, and 10.0 mM. The disappearance of the tetrazine absorption peak at 520 nm was tracked over the reaction timeframe by measuring the absorption spectra using a NanoDrop 2000c spectrophotometer (Thermo Scientific). Samples were placed in a quartz cuvette with 10-mm pathlength and stirred at the maximum speed setting of the instrument. The temperature was uncontrolled by the instrument for room temperature (20° C.) measurements, and set and equilibrated at 37° C. for the higher temperature experiments.
Absorption spectra were measured manually over time. Absorption peak signal was taken as the average of measurements at 519-521 nm. Baseline signal was determined as the sloping line connecting the measured background levels preceding and following the tetrazine peak (410-430 nm and 590-610 nm, respectively). Final peak intensity value was taken as the signal above the baseline. Reaction rates were obtained by fitting the exponential decays of tetrazine peak absorption intensity as a pseudo first order reaction. Nonlinear data fits were performed with GraphPad Prism. Tetrazine reactions with cyclopropene carbamate 5 were carried out at 20 and 37° C. (data points and corresponding fitted curves at 20° C. in FIG. 51, 37° C. in FIG. 2c). Tetrazine reactions with cyclopropene carboxamide 2 were done at 37° C. ([…]. A representative comparison fit is shown for cyclopropenes 5 and 2 at 8.0 mM concentration reacting at 37° C. with 0.6 mM tetrazine.

[9] = system: singly-mismatched 27mer template; experiment: Single nucleotide mismatch discrimination in probe ligation; assay type: biochemical; details: 5 mM MgCl2 in Tris-borate buffer at 37° C.; reaction with 13merF15′tet
Procedure: (§4) Tetrazine and cyclopropene-modified oligonucleotide probes were ligated in the presence of a DNA or RNA template at a 1:1:1 ratio. Reactions were done in varying solution and temperature conditions, as indicated. Main hybridization buffer was 50 mM MOPS at pH 7.5, 250 mM NaCl. Ligation reactions with a mismatched DNA template were performed in 5 mM MgCl2 in standard 1× Tris-borate buffer (purchased as 10× UltraPure TBE from Invitrogen: 1.0 M Tris pH 8.4, 0.9 M Boric acid, 10 mM EDTA).
A single nucleotide mismatch effect was determined on reaction completion in discriminating conditions from FIG. 2C and is depicted in Figure S8. TBE 1× buffer (pH 8.4, Invitrogen) with 5 mM MgCl2 solution at 37° C. was used for incubation of 13mer5′tet with 13mer3′cycp1 in the presence of a fully matched template, or a sample containing a fully matched template and a single mismatched template, and a sample with only a singly-mismatched template. All DNA concentrations were kept at 1 μM. Fluorescence measurements were taken using a Perkin Elmer LD-45 spectrophotometer, as described above, with the samples in the quartz cuvettes warmed with attached circulating water bath. Initial timepoints were taken of prewarmed samples prior to template addition, and subtracted from the final intensity values (Figure S8).

[10] = system: 27mer DNA template; experiment: Template-driven ligation of tetrazine and cyclopropene oligonucleotide probes (fluorescence); assay type: biochemical
Procedure: as §4
(§5) Ligation reactions were done in standard 96 fluorescence well plates using SpectraMax GeminiXS (Molecular Devices). Temperature was set by the instrument. Where indicated by standard deviations, experiments were performed multiple times. In order to avoid any secondary structure artifacts, DNA or RNA template with added tetrazine probe was first heated to 90° C. and crash-cooled on ice for 2 min right before the experiment. Each well was filled with a total of 100 μL reaction solution, and reactions were timed from the addition of the cyclopropene probe as the last step before starting the measurements. Wells were scanned every 20-60 s depending on the speed of the reactions by using 485 nm excitation and 538 nm emission with the cutoff set at 495 nm. Control reactions without template were done in parallel each time. Buffer-only well intensities were subtracted from the measured raw data before analysis. Data was analyzed using GraphPad Prism 6.0 by applying a nonlinear fit of a one-phase association to each curve where fluorescein signal during reaction was measured.

[11] = system: 27mer DNA template; experiment: Melting temperatures of DNA template with probes and ligation products; assay type: physicochemical; details: hybridization target against 27mer template; 250 mM NaCl in buffer; 1 μM each oligonucleotide
Procedure: Melting temperature of probes and ligation products in hybridization buffer (50 mM MOPS pH 7.5, 250 mM NaCl) were measured using a Beckman-Coulter DU 640 spectrophotometer equipped with a high performance temperature controller and micro auto six-cell holder. Samples at 1 μM concentration of each oligonucleotide were heated to 90° C. and slowly cooled to RT over 1-1.5 h before the measurements. Melting temperature values were obtained by cooling samples from 90° C. to 20° C. at the rate of 1° C./min and measuring at 1° C. increments with each read averaged over 1 s.

[12] = system: 27mer RNA template; experiment: Ligation of oligonucleotide probes with an RNA template; assay type: biochemical; details: ligating 13merF15′tet and 13mer3′cycp1
Procedure: as §4
as §5, with “Wells were scanned every 20-60 s depending on the speed of the reactions by using 485 nm excitation and 538 nm emission with the cutoff set at 495 nm. Control reactions without template were done in parallel each time.” left out

1,3,4,6-Tetra-O-acety-N-cyclopropene tag-D-mannosamine [Ac4ManNCyc]
fluorogenic response of quenched tetrazine probe [1]: elicits fluorogenic responses | fluorescence intensity by flow cytometry compared to controls [2]: increased fluorescence intensity | cell surface staining by confocal microscopy [3]: bright surface staining | cell surface staining by confocal microscopy [4]: bright surface staining | cell surface staining after co-incubation of both sugars ([5]; 100 μM, 2 days, stained with 10 μM tetrazine-Alexa Fluor 488 and 15 μM DIBO 647): cell surface staining in both the fluorescent channels | cross reactivity: surface staining with DIBO 647 ([5]; cells incubated with only this sugar): minimal surface staining

2-methyl-cyclopropene carbamate [cyclopropene 5]
storage stability at −20° C. [6]: without degradation | degradation in aqueous solutions [7]: no significant degradation | rate constant ([8]; 20° C., 12% DMSO by volume): 7 ± 1 M⁻¹ s⁻¹ | improvement of rate constant compared to cyclopropene carboxamide 2 ([8]; 37° C.): approximately two orders of magnitude | second order rate constant ([8]; 37° C., water/DMSO (12% DMSO by volume)): 13 ± 2 M⁻¹ s⁻¹

13mer3′cycp1: 5′-ATT CAA CAC TAC C/3AmMO/-cyclopropene-3′ (SEQ ID NO:5), methyl-cyclopropene carbamate cycp1 (DNA ATTCAACACTACC; DNA, 3' {3AmMO}-{cycp1}, backbone not given here)
effect of single mismatch (T to G) in template on reaction rate [9]: only a moderate difference | reaction yield by LC/MS ([10]; disappearance of 13merF15′tet and appearance of product): approximately 92% | effective molarity of the intramolecular reaction ([10]; estimated assuming the reaction is limited by ligation): 53 mM | observed first order rate constant of DNA-templated reaction ([10]; reaction with 13merF15′tet in the presence of DNA template): 0.019 ± 0.001 s⁻¹ | time at which the fluorescence signal plateaus ([10]; reaction with 13merF15′tet, 1 μM 27mer template): about 200 s | Melting T [11]: 50.4 °C | ligation with RNA template compared with DNA template [12]: equally effective
